Laboratory results published in US20010049373A1, “Materials and methods for killing nematodes and nematode eggs” (priority 2000, published 2001).

Legend:
[1] = system: Caenorhabditis elegans; assay: HTS runs (initial and follow-up): mOD, % Run and visual score (Table 3); format: in vivo; parameters: key to Initial HTS Run Visual Score / Follow-up HTS Run Visual Score: Dead: only stiff L1s (no movement); Dead (L4): worms are dead, but at a later larval stage; majority of worms are L1 (based on size); majority of worms are L2 (based on size); majority of worms are L3 (based on size); majority of worms are L4 (based on size); AD: majority of worms are adult; #AD: 5 adult worms or less; B!: sterile (0-25 progeny); B: low broodsize (25-100 progeny); ˜B: moderate broodsize (100-250 progeny); <: reduced broodsize (250-500 progeny); OK: no effect (˜1000+ progeny)
Experimental: (§1) The nematicidal activity of anthelmintic Compositions 48-118 were determined in accordance with the procedure outlined in Example 2.

[2] = system: Caenorhabditis elegans; assay: C. elegans L1 larvae dose-response, 5 day visual viability score (Examples 2 and 7); format: in vivo; parameters: key: Dead: only stiff L1s (no movement); Dead (L4): worms are dead, but at a later larval stage; majority of worms are L1 (based on size); majority of worms are L2 (based on size); majority of worms are L3 (based on size); majority of worms are L4 (based on size); AD: majority of worms are adult; #AD: 5 adult worms or less; B!: sterile (0-25 progeny); B: low broodsize (25-100 progeny); ˜B: moderate broodsize (100-250 progeny); <: reduced broodsize (250-500 progeny); OK: no effect (˜1000+ progeny); conditions: day 5, Table 3; for 5 Day Visual Score V6: 0.3 μM (procedure of Example 2); for 5 Day Visual Score V5: 0.9 μM (procedure of Example 2); for 5 Day Visual Score V4: 2.6 μM (procedure of Example 2); for 5 Day Visual Score V3: 7.8 μM (procedure of Example 2); for 5 Day Visual Score V2: 23.3 μM (procedure of Example 2); for 5 Day Visual Score V1: 70 μM (procedure of Example 2)
Experimental: Caenorhabditis elegans adults were grown on Nematode Growth Medium (NGM) until they produced eggs, then the adults were removed.
The eggs were allowed to hatch, and the L1 larvae collected. See The Neniatode Caenorhabditis elegans (1988) Cold Spring Harbor Laboratory Press. Using a Matrix Programmable Pipette, the L1s were distributed into 96-well tissue culture plates, 20 L1 in 50 μl NGM per well. Antibiotic/Antimyotic was added to each well, and 1% by weight E. coli strain HB101. The subject anthelmintic compounds were stored at 5 mM in 100% DMSO. 0.7 μl of compounds 1-31 were added to the left-most column of wells to yield a final concentration of 70 μM in 1.4% DMSO, with 1.4% DMSO only as the control. The compounds were then subjected to 5 more 3-fold dilutions from left to right to yield 6 column concentrations of 70 μM, 23.3 μM, 7.8 μM, 2.6 μM, 0.9 μM, and 0.3 μM. Plates were stored in air-tight Rubbermaid plastic boxes at 20° C. The nematodes had cleared all control wells by day 4, and nematode viability was scored by visual examination under a 100× dissecting microscope on day 5. A visual viability scoring system was used as follows:
If several classes of worms exist in a well, then all classes are scored. If adults are present, then the brood score is also recorded. Thus, “L1/L2” would mean a mixture of L1's and L2's are present in the well. “L4/#AD/B” would mean that a mixture of L4's and adults are resent in the well. The “#AD” would mean that there are 6 or less adults, and the “B” would mean that there were 100 progeny or less.
Column VI has a compound concentration of 70 μM with sequential 3-fold dilutions reported in columns V2, V3, V4, V5, and V6, respectively, such that the V6 concentration was 0.3 μM.
as §1

| Compound | Follow-up HTS Run % Run [1] | Follow-up HTS Run Visual Score [1] | Follow-up HTS Run mOD [1] | Initial HTS Run % Run [1] | Initial HTS Run Visual Score [1] | Initial HTS Run mOD [1] | 5 Day Visual Score V6 [2] | 5 Day Visual Score V5 [2] | 5 Day Visual Score V4 [2] | 5 Day Visual Score V3 [2] | 5 Day Visual Score V2 [2] | 5 Day Visual Score V1 [2] |
| --- | --- | --- | --- | --- | --- | --- | --- | --- | --- | --- | --- | --- |
| Clc1cccc(Oc2cc(NCc3ccccc3Cl)ncn2)c1 [AKC 376] | 115% | L2/L3/1AD | 155 mOD | 131% | 2AD/B | 256 mOD | OK (no effect (˜1000+ progeny)) | OK (no effect (˜1000+ progeny)) | OK (no effect (˜1000+ progeny)) | OK (no effect (˜1000+ progeny)) | OK (no effect (˜1000+ progeny)) | L1 |
| NS(=O)(=O)c1cccc(NC(=O)CCN2CCC(c3cccc4[nH]ccc34)CC2)c1 [AKC 377] | 109% | L4/AD/B!-No P | 147 mOD | 113% | 3AD/B | 220 mOD | OK (no effect (˜1000+ progeny)) | OK (no effect (˜1000+ progeny)) | OK (no effect (˜1000+ progeny)) | OK (no effect (˜1000+ progeny)) |  | L1 |
| FC(F)(F)c1cccc(CNc2cc(Oc3cccc(Cl)c3)ncn2)c1 [AKC 379] | 107% | L4/AD/B! | 144 mOD | 142% | Dead/1AD | 277 mOD | OK (no effect (˜1000+ progeny)) | OK (no effect (˜1000+ progeny)) | OK (no effect (˜1000+ progeny)) | OK (no effect (˜1000+ progeny)) |  | Dead |
| Fc1ccc(Oc2cc(NCc3cccc(C(F)(F)F)c3)ncn2)cc1 [AKC 380] | 102% | L4/AD/B! | 138 mOD | 129% | Dead | 251 mOD | OK (no effect (˜1000+ progeny)) | OK (no effect (˜1000+ progeny)) | OK (no effect (˜1000+ progeny)) | OK (no effect (˜1000+ progeny)) |  | L1 |
| Fc1ccccc1Oc1cc(NCc2cccc(C(F)(F)F)c2)ncn1 [AKC 381] | 109% | L4/AD/B! | 147 mOD | 138% | Dead/1AD/B! | 270 mOD | OK (no effect (˜1000+ progeny)) | OK (no effect (˜1000+ progeny)) | OK (no effect (˜1000+ progeny)) | < (reduced broodsize (250-500 progeny)) | ˜B (moderate broodsize (100-250 progeny)) | L1 |
| FC(F)(F)c1cccc(CNc2cc(Oc3ccc(-c4ccccc4)cc3)ncn2)c1 [AKC 382] | 118% |  | 159 mOD | 141% | Dead | 275 mOD | OK (no effect (˜1000+ progeny)) | OK (no effect (˜1000+ progeny)) | OK (no effect (˜1000+ progeny)) | OK (no effect (˜1000+ progeny)) |  | Dead |
| FC(F)(F)c1cccc(CNc2cc(Oc3ccccc3Cl)ncn2)c1 [AKC 383] | 110% | L4/AD/B! | 149 mOD | 132% | 5AD/B | 257 mOD | OK (no effect (˜1000+ progeny)) | OK (no effect (˜1000+ progeny)) | OK (no effect (˜1000+ progeny)) | OK (no effect (˜1000+ progeny)) | ˜B (moderate broodsize (100-250 progeny)) | L1 |
| CC(C)(C)OC(=O)NCc1ccc(-c2cccc(C(=O)Nc3ccc(S(N)(=O)=O)cc3)c2)cc1 [AKC 390] | 110% | L4 | 148 mOD | 133% | B! (sterile (0-25 progeny)) | 260 mOD | OK (no effect (˜1000+ progeny)) | OK (no effect (˜1000+ progeny)) | OK (no effect (˜1000+ progeny)) | OK (no effect (˜1000+ progeny)) |  | L1 |
| C#Cc1cccc(N(CC(=O)Nc2ccc(S(N)(=O)=O)cc2)Cc2cccs2)c1 [AKC 394] | 111% | Dead | 150 mOD | 135% | Dead | 264 mOD | < (reduced broodsize (250-500 progeny)) | OK (no effect (˜1000+ progeny)) | OK (no effect (˜1000+ progeny)) |  | Dead | Dead |
| CCCCCCCCCCCCNc1cc(Oc2ccccc2OC)ncn1 [AKC 398] | 93% | Dead | 126 mOD | 118% | Dead | 231 mOD | OK (no effect (˜1000+ progeny)) | < (reduced broodsize (250-500 progeny)) | OK (no effect (˜1000+ progeny)) | #AD/˜B | Dead | Dead |
| CCCCCCCCCCCCNc1cc(Oc2ccccc2Cl)ncn1 [AKC 404] | 124% | Dead | 168 mOD | 155% | Dead | 302 mOD | OK (no effect (˜1000+ progeny)) | OK (no effect (˜1000+ progeny)) | OK (no effect (˜1000+ progeny)) | OK (no effect (˜1000+ progeny)) | Dead | Dead |
| CCC(NC(=O)Nc1ccc(NC(=O)C2CCCO2)cc1)c1cccc(S(N)(=O)=O)c1 (centres unmarked) [AKC 405] | 120% | 1AD/B! | 162 mOD | 141% | 4AD/B | 274 mOD | OK (no effect (˜1000+ progeny)) | OK (no effect (˜1000+ progeny)) | OK (no effect (˜1000+ progeny)) | #AD/˜B | L1 | L1 |
